Source: US7671230B2, “Derivatization and solubilization of insoluble classes of fullerenes” (TDA Research, Inc., priority 2001, dated 2010)

How the values were obtained:
[1] = Solubility of fullerenic species and their derivatives in solvents; format: physicochemical; settings: for solubility of derivative in organic solvents: common polar and non-polar organic solvents; for solubility class: both non-polar and polar solvents
Source text: Insoluble fullerenes are any fullerenic species generated by any known method which are not soluble in solvents (common solvents, i.e., non-polar organic solvents, such as hydrocarbons and arenes and halogenated arenes, including toluene, benzene) commonly employed to solublize fullerenes, such as C60. Solubility (or lack thereof) of a given fullerenic species in a given solvent can be assessed by methods known in the art, e.g., by assessing how much of a fullerenic species can be extracted into a given amount of solvent, for example, using mass spectrometric methods as illustrated herein. The insoluble classes of fullerenes are also insoluble in polar solvents. […] Non-derivatized fullerenic species are in general not soluble in almost all polar solvents. However, fullerenic species, if soluble have an anomalously high solubility in polar chloro and bromo substituted arenes. As discussed herein and as is understood in the art certain classes of non-derivatized fullerenic species are soluble in non-polar solvents such as toluene and benzene.
The methods of this invention can be used to derivatize insoluble fullerenic species and related carbon nanotube species to make them soluble (or to enhance the solubility of given fullerenic species or carbon nanotubes). Derivatization reaction of this invention may render the derivatized species soluble (or enhance its solubility) in common non-polar solvents or it may render the derivatized species soluble (or enhance its solubility) in polar solvents. For purposes of this application, solubility is defined as the dissolution of free molecules (or salts) in the solvent with reversibility to remove the solvent to obtain the molecules (or salts) dissolved. In preferred cases, the solvent is readily removed by application of reduced pressure and/ or by non-destructive heating. A species may also be removed from solution by recrystallization, for example by addition of solvent in which the species is not soluble to the solution. Certain solvents may readily dissolve a given species, but may not be removable to regenerate the species that was dissolved or it may not be possible to recrystallize the species unchanged. For example, the solvent may only be partially removable or the solvent may have reacted with the species causing a chemical change or irreversible adduct formation.
In general, fullerenes have “low solubility” in all solvents compared to most organic compounds. […] C60 is insoluble in polar solvents like acetonitrile and methanol (no measurable amount dissolves). […] C60 is soluble in substituted naphthalenes (30 to 50 mg/mL). […] As noted above, insoluble classes of fullerenic species are also insoluble in polar solvents.

[2] = Air/water stability of derivatized materials (long-term stability of solutions, re-dissolution of exposed solids); format: physicochemical; settings: presence of oxygen and/or water; no evidence for decomposition over several months time
[3] = Aqueous-phase size-exclusion chromatography (SEC-HPLC), aggregation; format: physicochemical
Procedure: This derivatized metallofullerene, Gd@C60(C(COOCH2CH3)2)x, can be converted to a water-soluble species by de-esterification to carboxylic acid or carboxylate salt groups. This is performed by the method of Hirsch (Lamparth, 1994). The ester derivative (100 mg) is dissolved in toluene (15 mL) and vigorously stirred at reflux with excess solid NaH (100 mg) under argon for 2-3 hours. Next, methanol (3 mL) is added with stirring. Vigorous bubbling is observed, followed by precipitation of the sodium carboxylate salt of the Gd@C60 derivative. The solid is isolated, dissolved in water, and partially purified with dialysis tubing (MW cutoff˜500). The water is removed from an aqueous solution of the carboxylate with a rotary evaporator connected to a vacuum source; it is important to avoid decarboxylation by heating gently (<50° C.). Lowering the pH of aqueous solutions of the carboxylate salt can produce the acid form, which may have less water solubility depending on the number of acid groups present. […] Ion-exchange resin (Dowex-50, etc. etc.) can be used to change the counterion in Gd@C60(C(COONa)2)x to other alkali metals etc. or to hydrogen (proton) i.e. Gd@C60(C(COOH)2)x.

[4] = aqueous; compared with conventional inorganic chelates; cited from earlier work

For C60(C33H48O12), the “solubility of derivative in organic solvents” value [1] was “solubility in a variety of common polar and non-polar organic solvents”.

For Gd@C60, the solubility class [1] was “Insoluble”.

With Gd@C60(C(COOCH2CH3)2)x the “stability in air / oxygen and water” value [2] was “air-stable” and the “solubility of derivative in organic solvents” value [1] was “solubility in a variety of common polar and non-polar organic solvents”.

For Gd@C60(C(COOH)2)x, the “stability in air / oxygen and water” value [2] was “air-stable”.

In the case of Gd@C60(C(COONa)2)x, the “stability in air / oxygen and water” value [2] is reported as “air-stable”, the water solubility [1] is reported as “fully water-soluble” and the “aggregation state in aqueous solution” value [3] is reported as “not clustered in large aggregates”.

For Gd@C82, the solubility class [1] was “Slightly Soluble”.

For Gd@C82(OH)x, the R1 relaxivity [4] is listed as “higher R1 values”.

For ^166Ho@C60(C(COOCH2CH3)2)x, the “solubility in THF after derivatization” value ([1]; tetrahydrofuran) was “soluble”.

For ^166Ho@C60(C(COONa)2)x, the water solubility [1] was “water soluble”.
